Assay results as given in patent US7271147B2, “Antibiotics, tripropeptins and process for producing the same” (Zaidan Hojin Biseibutsu Kagaku Kenkyu Kai, priority 2000, dated 2007).
Values after ≈ are worked out from the molar mass of the structure shown. Like-named read-outs stand apart in the source and are kept apart here. Starred links: 1 amine or outer side, 2 acyl side, 3 side chain; linkers in the order of their positions; H or OH if unused. Positions of bridges follow the written chain, without caps; N, C: chain ends. Non-standard residues stand in square brackets, D forms with d. Residues, ends and D or L forms follow the SMILES beside them. ξ: configuration not given here. X6 = CC(C)CCCCCCCCC(CC(=O)[*:1])O[*:2]; X5 = CC(C)CCCCCCCC(CC(=O)[*:1])O[*:2]; ξAsp(3ξ-OH) = NC(C(=O)O)C(O)C(=O)O; X1 = O=C(C1C(O)CCN1[*:1])[*:2]

Legend:
Format in all cases: cell-based
[1] = tested on: Staphylococcus aureus FDA209P; assay: Minimum growth inhibitory concentration, agar serial dilution; conditions: Mueller-Hinton agar
[2] = tested on: Staphylococcus aureus Smith; assay: as above; conditions: Mueller-Hinton agar
[3] = tested on: Staphylococcus aureus MS9610 (multi-drug-resistant); assay: as above; conditions: Mueller-Hinton agar
[4] = tested on: Staphylococcus aureus MS16460 (methicillin-resistant); assay: as above; conditions: read-out: Minimum growth inhibitory concentration
[5] = tested on: Staphylococcus aureus MS16497 (methicillin-resistant); assay: as above; conditions: Mueller-Hinton agar
[6] = tested on: Staphylococcus aureus MS16526 (methicillin-resistant); assay: as above; conditions: Mueller-Hinton agar
[7] = tested on: Staphylococcus aureus TY-00933 (methicillin-resistant); assay: as above; conditions: Staphylococcus aureus TY-00933 (methicillin-resistant); Mueller-Hinton agar; read-out: Minimum growth inhibitory concentration
[8] = tested on: Staphylococcus aureus TY-03454 (methicillin-resistant); assay: as above; conditions: Mueller-Hinton agar
[9] = tested on: Staphylococcus aureus TY-03456 (methicillin-resistant); assay: as above; conditions: Staphylococcus aureus TY-03456 (methicillin-resistant); Mueller-Hinton agar; read-out: Minimum growth inhibitory concentration
[10] = tested on: Staphylococcus aureus TY-04282 (methicillin-resistant); assay: as above; conditions: Mueller-Hinton agar
Micrococcus luteus FDA16 = assay: as above; conditions: Mueller-Hinton agar
Bacillus anthracis = assay: microbe, parasite or virus in culture; conditions: read-out: Minimum growth inhibitory concentration
Bacillus subtilis PCI219 = assay: Minimum growth inhibitory concentration, agar serial dilution; conditions: Mueller-Hinton agar
[11] = tested on: Bacillus cereus ATCC10702; assay: as above; conditions: Bacillus cereus ATCC10702; Mueller-Hinton agar; read-out: Minimum growth inhibitory concentration
[12] = tested on: Corynebacterium bovis 1810; assay: as above; conditions: Mueller-Hinton agar
Shigella sonnei JS11746 = assay: as above; conditions: Mueller-Hinton agar
Protocol: (§1) Minimum growth inhibitory concentrations (μg/ml) of tripropeptin Z against a variety of microorganisms were measured on a Mueller-Hinton agar medium (manufactured by Difco Laboratories) or on a 5% sheep blood-supplemented Mueller-Hinton agar medium (manufactured by Difco Laboratories) for Enterococcus, by a serial dilution method according to the standard method as provided by Japanese Society of Chemotherapy.
as §1, with “A” for “Z”
as §1, with “B” for “Z”
as §1, with “C” for “Z”
as §1, with “D” for “Z”

Salmonella typhi T-63 = assay: as above; conditions: Salmonella enterica, Mueller-Hinton agar
[13] = tested on: Klebsiella pneumoniae PCI602; assay: as above; conditions: Mueller-Hinton agar
[14] = tested on: Enterococcus faecalis JCM5803; assay: as above; conditions: 5% sheep blood-supplemented Mueller-Hinton agar
[15] = tested on: Enterococcus faecium JCM5804; assay: as above; conditions: 5% sheep blood-supplemented Mueller-Hinton agar
[16] = tested on: Enterococcus faecalis NCTC 12201 (vancomycin-resistant); assay: as above; conditions: NCTC12201, 5% sheep blood-supplemented Mueller-Hinton agar
[17] = tested on: Enterococcus faecium NCTC 12202 (vancomycin-resistant); assay: as above; conditions: NCTC12202, 5% sheep blood-supplemented Mueller-Hinton agar
[18] = tested on: Enterococcus faecalis NCTC 12203 (vancomycin-resistant); assay: as above; conditions: NCTC12203, 5% sheep blood-supplemented Mueller-Hinton agar
[19] = tested on: Enterococcus faecium NCTC 12204 (vancomycin-resistant); assay: as above; conditions: NCTC12204, 5% sheep blood-supplemented Mueller-Hinton agar

CC(C)CCCCCCCC1CC(=O)NC(C(C)O)C(=O)N2CCCC2C(=O)N2CCCC2C(=O)NC(CCCNC(=N)N)C(=O)NC(C(O)C(=O)O)C(=O)NC(CO)C(=O)N2CCC(O)C2C(=O)NC(C(O)C(=O)O)C(=O)O1 (stereo not drawn) [Tripropeptin A] (TPPR[ξAsp(3ξ-OH)]S[X1][ξAsp(3ξ-OH)]; linker N-C via X5; configuration not given here)
MIC [1]: 1.56 µg/mL (≈ 1.39 µM)
MIC [2]: 0.78 µg/mL (≈ 0.693 µM)
MIC [3]: 6.25 µg/mL (≈ 5.55 µM)
MIC ([4]; Staphylococcus aureus MS16460 (methicillin-resistant), Mueller-Hinton agar): 6.25 µg/mL (≈ 5.55 µM)
MIC [5]: 6.25 µg/mL (≈ 5.55 µM)
MIC [6]: 3.13 µg/mL (≈ 2.78 µM)
MIC [7]: 6.25 µg/mL (≈ 5.55 µM)
MIC [8]: 6.25 µg/mL (≈ 5.55 µM)
MIC [9]: 6.25 µg/mL (≈ 5.55 µM)
MIC [10]: 6.25 µg/mL (≈ 5.55 µM)
MIC (Micrococcus luteus FDA16): < 0.39 µg/mL
MIC (Bacillus anthracis): 25 µg/mL (≈ 22.2 µM)
MIC (Bacillus subtilis PCI219): 3.13 µg/mL (≈ 2.78 µM)
MIC [11]: 12.3 µg/mL (≈ 10.9 µM)
MIC [12]: 1.56 µg/mL (≈ 1.39 µM)
MIC (Shigella sonnei JS11746): > 100 µg/mL
MIC (Salmonella typhi T-63): > 50 µg/mL
MIC [13]: > 50 µg/mL
MIC [14]: 50 µg/mL (≈ 44.4 µM)
MIC [15]: 50 µg/mL (≈ 44.4 µM)
MIC [16]: 50 µg/mL (≈ 44.4 µM)
MIC [17]: 50 µg/mL (≈ 44.4 µM)
MIC [18]: 50 µg/mL (≈ 44.4 µM)
MIC [19]: 50 µg/mL (≈ 44.4 µM)

CC(C)CCCCCCCCC1CC(=O)NC(C(C)O)C(=O)N2CCCC2C(=O)N2CCCC2C(=O)NC(CCCNC(=N)N)C(=O)NC(C(O)C(=O)O)C(=O)NC(CO)C(=O)N2CCC(O)C2C(=O)NC(C(O)C(=O)O)C(=O)O1 (stereo not drawn) [Tripropeptin B] (TPPR[ξAsp(3ξ-OH)]S[X1][ξAsp(3ξ-OH)]; linker N-C via X6; configuration not given here)
MIC [1]: 1.56 µg/mL (≈ 1.37 µM)
MIC [2]: 1.56 µg/mL (≈ 1.37 µM)
MIC [3]: 3.13 µg/mL (≈ 2.74 µM)
MIC ([4]; Staphylococcus aureus): 6.25 µg/mL (≈ 5.48 µM)
MIC [5]: 3.13 µg/mL (≈ 2.74 µM)
MIC [6]: 3.13 µg/mL (≈ 2.74 µM)
MIC [7]: 3.13 µg/mL (≈ 2.74 µM)
MIC [8]: 3.13 µg/mL (≈ 2.74 µM)
MIC [9]: 3.13 µg/mL (≈ 2.74 µM)
MIC [10]: 3.13 µg/mL (≈ 2.74 µM)
MIC (Micrococcus luteus FDA16): 0.2 µg/mL (≈ 0.175 µM)
MIC (Bacillus anthracis): 6.25 µg/mL (≈ 5.48 µM)
MIC (Bacillus subtilis PCI219): 1.56 µg/mL (≈ 1.37 µM)
MIC [11]: > 100 µg/mL
MIC [12]: 0.78 µg/mL (≈ 0.684 µM)
MIC (Shigella sonnei JS11746): > 100 µg/mL
MIC (Salmonella typhi T-63): > 100 µg/mL
MIC [13]: > 100 µg/mL
MIC [14]: 25 µg/mL (≈ 21.9 µM)
MIC [15]: 25 µg/mL (≈ 21.9 µM)
MIC [16]: 12.5 µg/mL (≈ 11 µM)
MIC [17]: 25 µg/mL (≈ 21.9 µM)
MIC [18]: 50 µg/mL (≈ 43.8 µM)
MIC [19]: 25 µg/mL (≈ 21.9 µM)
